The conditions of data set [1]: in man; cited from earlier work.
The nature of data set [2]: NOAEL, repeated daily doses in the animal. As to conditions: extrapolated from the animal NOAEL. It is filed as in vivo. How it is done:
In man the NOAEL is 6 mg.

The conditions of data set [3]: doses repeated daily in the animal; cited from earlier work.
The target in data set [4] is T1, HMG-CoA reductase (HMG-CoA-r) (Homo sapiens, UniProt P04035).
T1 sequence (P04035 1-888): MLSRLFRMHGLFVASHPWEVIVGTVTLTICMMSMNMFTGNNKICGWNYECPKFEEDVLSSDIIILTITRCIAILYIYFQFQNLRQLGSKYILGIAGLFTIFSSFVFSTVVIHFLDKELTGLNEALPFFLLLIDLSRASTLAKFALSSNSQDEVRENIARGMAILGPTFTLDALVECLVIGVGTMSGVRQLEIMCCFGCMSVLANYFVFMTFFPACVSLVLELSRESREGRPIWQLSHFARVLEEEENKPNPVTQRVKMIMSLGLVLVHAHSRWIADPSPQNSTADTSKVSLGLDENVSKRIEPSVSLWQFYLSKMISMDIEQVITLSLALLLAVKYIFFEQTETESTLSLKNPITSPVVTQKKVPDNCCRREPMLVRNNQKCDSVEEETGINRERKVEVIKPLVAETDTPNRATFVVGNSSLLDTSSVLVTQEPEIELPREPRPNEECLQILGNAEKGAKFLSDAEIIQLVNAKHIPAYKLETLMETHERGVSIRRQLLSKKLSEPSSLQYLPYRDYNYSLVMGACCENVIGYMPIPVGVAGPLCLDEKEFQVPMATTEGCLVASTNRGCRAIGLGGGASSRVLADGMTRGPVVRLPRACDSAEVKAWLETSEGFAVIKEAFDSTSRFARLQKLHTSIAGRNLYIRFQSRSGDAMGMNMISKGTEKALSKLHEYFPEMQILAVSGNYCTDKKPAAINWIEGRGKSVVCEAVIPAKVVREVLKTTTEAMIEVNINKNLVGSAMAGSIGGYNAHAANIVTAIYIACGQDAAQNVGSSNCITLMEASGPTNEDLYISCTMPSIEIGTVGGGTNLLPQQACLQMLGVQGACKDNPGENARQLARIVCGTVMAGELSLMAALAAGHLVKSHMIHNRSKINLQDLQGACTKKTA
As to conditions: competitive enzymatic inhibition; cited from earlier work.

SMILES strings stand for the structures. Like-named read-outs stand apart in the source and are kept apart here.

For `CC1=C(/C=C/C(C)=C/C=C/C(C)=C/C=C/C=C(C)/C=C/C=C(C)/C=C/C2=C(C)C(=O)[C@@H](O)CC2(C)C)C(C)(C)C[C@H](O)C1=O` [AX, 3,3′-dihydroxy-β,β′-carotene-4,4′-dione], the entries for the “NOAEL (no observed adverse effect level)” value in data set [1] and in data set [3] were 6 mg and 1340 mg/kg, respectively. In addition, the “NOAEL of the animal, corresponding amount in man” value in data set [2] is on record as “more than 80 g”.

For the compound `CC[C@H](C)C(=O)O[C@H]1C[C@@H](C)C=C2C=C[C@H](C)[C@H](CC[C@@H]3C[C@@H](O)CC(=O)O3)[C@H]21` [Monacolin K], the “activity for the enzyme relative to the natural substrate HMG-CoA” value in data set [4] was 2000 times.

The values are drawn from patent US20080102082A1, “Formulation for Oral Administration Having a Health-Promoting Effect on the Cardiovascular System” (ROTTAPHARM S.p.A., priority 2004, published 2008).
